Experimental findings from PubChem BioAssay AID493003 (Sanford-Burnham Center for Chemical Genomics, 2010) are described below.

Each structure is given as a SMILES string. The source made the active and inactive calls. How the calls were made is not given here.

This assay concerns S. cerevisiae tim10-1 mutant growth, luminescence. Briefly: growth inhibitors of tim10-1 mutant yeast, dose response, luminescence, S. cerevisiae, uHTS hits (AID 493003).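 Further: yeast growth measured after about 22 hours at 25 °C.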
Usually IC50 stands for the concentration that gives 50% inhibition. As for `O=C1CC(SCc2nc3ccccc3[nH]2)C(=O)N1c1ccc(F)c(Cl)c1` (stereo unspecified), the IC50 is 32.1 µM. As for `COc1ccc(Br)cc1[C@H]1[C@H]2C=CC[C@@H](C)[C@@H]2C(=O)N1Cc1ccccc1`, the figure is 7.88 µM. As for `O=C(Nc1ccc(F)cc1)c1cccc2c1C(=O)N(Cc1ccccn1)C2`, the figure is 18 µM. As to `O=C(c1ccc2c3n(nc2c1)-c1ccccc1CO3)N1CCCCC1`, the half-maximal inhibitory concentration (IC50) was 13.4 µM.

Take `Cc1cc(Nc2cccc(F)c2)nc(-c2ccccc2O)n1`: the IC50 is 64.2 µM. To `CC(C)(C)c1ccc(C(=O)c2cn[nH]c2-c2ccccc2O)cc1` belongs 52 µM; to `COC(=O)COc1ccc(S(=O)(=O)N2CCN(c3ccccc3F)CC2)cc1C`, > 100 µM (inactive); to `Cc1ccccc1OCC(=O)Nc1ccc(S(=O)(=O)N2CCCC2)cc1`, 15.6 µM. For `COc1ccc(-c2cc(C3CC3)nc3sc(C#N)c(N)c23)cc1`, the IC50 was 12.7 µM.

In the case of `CC(C)c1ccc(S(=O)(=O)Nc2ccc(SC(F)F)cc2)cc1`, the IC50 was 45.9 µM. As for `CCOC(=O)c1ccc(NC(=O)CC2OCCN(CC)C2=O)cc1` (stereo unspecified), the figure is 9.9 µM; as for `Fc1cccc(-c2cc3nc4c(c(NCc5ccco5)n3n2)CCCC4)c1`, 33.7 µM; as for `O=C(Cc1ccc(Cl)c(Cl)c1)Nc1ccc(SC(F)F)cc1`, 46.7 µM. As for `COc1ccc(OCC(=O)Nc2ccc(S(=O)(=O)N3CCCCC3)cc2)cc1`, the IC50 is 36.4 µM. `Cc1ccc(C(=O)N2CCN(c3ccc(NC(=O)c4ccc(Br)o4)cc3)CC2)cc1`: the 50% inhibitory concentration (IC50) is 32.2 µM. On to `COc1ccc(-c2nncnn2)cc1`, for which the 50% inhibitory concentration (IC50) is 8.84 µM. As for `C/C(=N\NC(=S)NCc1ccccc1)c1ccc(Cl)s1`, the IC50 is 16.4 µM.

For the compound `O=C(c1ccc2c(c1)OCCO2)N1CCN(c2ncc(C(F)(F)F)cc2Cl)CC1`, the concentration for half-maximal inhibition (IC50) was 68.8 µM. As for `O=C(ON=C1CCN(S(=O)(=O)c2ccccc2)CC1)c1ccc(F)cc1`, the figure is 26.4 µM. `COc1ccc(C(=O)Nc2ccc(S(=O)(=O)N3CCCCC3)cc2)cc1OC`: the half-inhibitory concentration (IC50) is 27.9 µM.

As for `CCSc1nnc(NC(=O)c2nc(-c3ccccc3)n(-c3ccccc3)n2)s1`, the 50% inhibitory concentration (IC50) is 25.9 µM.

In the case of `Cn1c2ccccc2c(=O)c2ccc(C#CC3(N)CCCCC3)cc21`, the half-maximal inhibitory concentration (IC50) was 27.1 µM. To `CCN1C(=O)C(CC(=O)Nc2ccc(OC)cc2)N(CCc2ccc(OC)cc2)C1=S` (stereo unspecified) belongs 32.2 µM; to `CCOc1cc(/C=C/C(=O)c2ccc(C)cc2)ccc1OCC(=O)N(C)C`, 22 µM. Take `Cc1cc(Br)c(Cl)cc1NC(=O)CN1C(=O)C2C3CC(c4ccccc4)C(C3)C2C1=O` (stereo unspecified): the IC50 was 27.1 µM.

For the compound `COc1ccc(NS(=O)(=O)c2ccc3oc4ccccc4c3c2)cn1`, the IC50 was 28.3 µM. To `Cc1cc(NC(=O)C2CC2)ncc1NC(=O)C12CC3CC(CC(C3)C1)C2` belongs > 100 µM (inactive).

As for `O=C(CN1CCN(S(=O)(=O)c2ccc(Cl)cc2)CC1)Nc1ccc2c(c1)CCC2`, the 50% inhibitory concentration (IC50) is 25.3 µM. In the case of `CCOC(=O)N1CCN(S(=O)(=O)c2ccc(C(=O)N(CCN(CC)CC)c3nc4ccc(C)cc4s3)cc2)CC1`, the concentration for half-maximal inhibition (IC50) was 60.8 µM. As for `O=C1C2C3C=CC(CO)(O3)C2C(=O)N1c1ccccc1-c1ccccc1` (stereo unspecified), the concentration for half-maximal inhibition (IC50) was 4.92 µM. Regarding `O=C(Nc1ccccc1Cl)C(Cl)C(=O)c1ccccc1` (stereo unspecified), the IC50 was 70.1 µM. To `Cc1nc2ccc(Nc3nc4cc(S(=O)(=O)N5CCOCC5)ccc4o3)cc2s1` belongs 19.4 µM; to `COc1ccc(Cn2c(-c3ccc(Br)cc3)c[n+]3ccccc23)cc1`, 37.8 µM. As for `O=C(CSCC(=O)N1CCCCC1)Nc1nc(-c2ccc(Cl)s2)cs1`, the IC50 was 37.9 µM. For the compound `O=C(CN1CCN(S(=O)(=O)c2ccc3ccccc3c2)CC1)Nc1ccc2c(c1)CCC2`, the half-maximal inhibitory concentration (IC50) was 36.6 µM. As for `O=C(Nc1cccc(N2C(=O)C=CC2=O)c1)c1cccs1`, the figure is 4.4 µM; as for `Cn1ncc2c(Nc3ccc(Br)cc3)nc(Nc3ccc(Br)cc3)nc21`, 18.7 µM; as for `CCOc1ccccc1N1CCN(C(=O)Nc2ccc(F)c(Cl)c2)CC1`, 60.6 µM. With `CCCc1cc(NCC2CCCO2)n2c(nc3ccccc32)c1C#N` (stereo unspecified), the IC50 is 26.7 µM. To `Cc1cccc(C(=O)CC(=O)c2cc(Cl)ccc2O)c1` belongs 19 µM; to `Cc1cc(C)n(CC(O)Cn2c3ccc(Br)cc3c3cc(Br)ccc32)c(=O)n1` (stereo unspecified), 19.3 µM; to `COC(=O)c1ccc(NC(=O)CN2CCN(S(=O)(=O)c3ccc(Br)cc3)CC2)cc1`, 61.5 µM. Consider `N/C(=N\OC(=O)c1cccc(Cl)c1)c1ccccn1`, for which the IC50 is 26.7 µM. Take `CCNC(=S)N/N=C/c1ccc(-c2ccccc2)o1`: the IC50 was 34.8 µM.

On to `CCOC(=O)c1ccc(NC(=O)c2cccc3c2C(=O)N(CC2CCCO2)C3)cc1` (stereo unspecified), for which the IC50 was 55.1 µM. As for `C=CCc1ccc(O)c(-c2ccc(O)c(CC=C)c2)c1`, the half-inhibitory concentration (IC50) is 48.8 µM. On to `Nc1cc(Cl)ccc1Oc1ccc2ccccc2c1`, for which the IC50 is 23.1 µM. In the case of `Nc1ccccc1C(=O)/C=C/c1ccc2c(c1)OCO2`, the 50% inhibitory concentration (IC50) was 14.8 µM. As for `Clc1ccc(Cl)c2sc(N3CCCC3)nc12`, the figure is 35.7 µM; as for `CCOC(=O)c1c(N)sc2c(OC)c(Br)ccc12`, 30.5 µM; as for `O=[N+]([O-])c1ccccc1/C=C/C=N/n1c(-c2ccccc2)n[nH]c1=S`, 73.4 µM. As for `Cc1cc(/C=C\c2ccc3cc(N(C)C)ccc3[n+]2C)c(C)n1-c1ccccc1`, the figure is 9.45 µM. As for `Cc1cccc(/C=C2\Oc3cc(OS(C)(=O)=O)ccc3C2=O)c1`, the figure is 31.9 µM; as for `Fc1ccc(CNC(=S)Nc2cccc(C(F)(F)F)c2)cc1`, 16.1 µM. Consider `O=C(Nc1ncc2c(n1)-c1ccccc1CC2)c1cccc(Cl)c1`, for which the IC50 was 52.7 µM. In the case of `COc1ccc(-c2sc3cc4c(cc3c2C#CC2(N)CCCCC2)OCO4)cc1`, the IC50 is 12.5 µM. Turning to `CCOc1ccccc1NC(=O)/C=C/C(N)=O`, the 50% inhibitory concentration (IC50) is 14.4 µM. To `Cc1cc(C)n2nc(SCc3c(F)cccc3Cl)nc2n1` belongs > 100 µM (inactive); to `COc1cc(OC)c(C(=O)O/N=C(\N)c2cccc(C)c2)cc1OC`, 17.7 µM; to `O=C(NNC(=S)Nc1ccc(Cl)cc1)c1ccccc1OC(F)F`, 12 µM. As for `CCCc1cc(-c2nc(-c3ccc(C)cc3)cs2)ccn1`, the figure is 49.7 µM.

As for `CCCOc1ccc2c(c1)C(=NN=C(N)N)c1cc(OCCC)ccc1-2`, the concentration for half-maximal inhibition (IC50) was 19.8 µM. Regarding `Cc1oc2cc(Br)c(O)c(Br)c2c1C(=O)c1ccccc1`, the 50% inhibitory concentration (IC50) is 25.9 µM. As for `COc1cc(OC)c(C(=O)O/N=C(\N)c2ccc(C)cc2)cc1OC`, the figure is 14.5 µM. As for `O=C(NC(=S)NCc1ccccc1)c1ccccc1F`, the figure is 66.5 µM. As for `Cc1nonc1C(=O)N/N=C/c1ccc(O)cc1`, the half-inhibitory concentration (IC50) is 30.3 µM. As for `N/C(=N\S(=O)(=O)c1cc(C(F)(F)F)cc(C(F)(F)F)c1)c1ccc(Cl)cc1`, the 50% inhibitory concentration (IC50) was 49.7 µM. `N/C(=N\OC(=O)c1ccc(Cl)cc1)c1ccc(Cl)cc1`: the IC50 was 3.34 µM. `CCCOc1ccc(CN(CCC#N)C(=S)NC(=O)c2ccccc2)cc1`: the 50% inhibitory concentration (IC50) is 10.9 µM. To `CC1CCN(C(=O)CCc2ccc(Oc3cc([N+](=O)[O-])cc([N+](=O)[O-])c3)cc2)CC1` belongs 50.1 µM; to `N/C(=N\OC(=O)c1ccccc1Cl)c1cccc([N+](=O)[O-])c1`, 23 µM; to `CSc1ccc(-c2nc3cnccn3c2Nc2ccc3c(c2)OCO3)cc1`, 59.4 µM.

Consider `Oc1ccc(-c2nccc(-c3ccc(F)cc3)n2)cc1`, for which the 50% inhibitory concentration (IC50) is 50.3 µM. To `O=S(=O)(CCN(CCS(=O)(=O)C(F)(F)F)CC1CCCO1)C(F)(F)F` (stereo unspecified) belongs 7.82 µM. To `CCOC(=O)c1c(-c2ccc(C)o2)csc1NC(=S)NC(=O)N(C)C` belongs 19.5 µM. Take `Cn1c2ccccc2c(=O)c2ccc(C#CC3(O)CCCCC3)cc21`: the IC50 is 24.5 µM. To `Cc1nn2c3ccccc3nc2c2ccccc12` belongs 77.1 µM; to `Cc1c(C)n(Cc2ccccc2)c2ccc(C(=O)OCCN(C)C)cc12`, 32.1 µM; to `CCc1ccc2nc3nc(C)cc(C)c3c(N)c2c1`, 25.1 µM. As for `O=[N+]([O-])c1cc(Cl)ccc1N1CCN(c2ccccc2O)CC1`, the figure is 32.3 µM. As for `Cc1cccc(NC(=O)c2ccc([N+](=O)[O-])s2)n1`, the figure is 6.52 µM; as for `CC(C)C[C@@H](CSc1ccc(Br)cc1)N1CCN(CC(C)C)CCC1=O`, 25.9 µM; as for `O=C(CSCC(=O)OCn1nnc2ccccc2c1=O)Nc1ccc(Cl)cc1`, 20.2 µM. For the compound `C=CCc1cccc(CNc2nc3ccccc3n2C(C)C)c1O`, the half-maximal inhibitory concentration (IC50) is 61.1 µM.

In the case of `COc1cccc(-c2nn(C)c3sc(C(=O)N4CCN(c5ccccn5)CC4)cc23)c1`, the IC50 is 46.2 µM. To `Cc1ccc(OCCOc2cccc(Br)c2)c([N+](=O)[O-])n1` belongs 69.2 µM; to `O=C1CC(Sc2nnc(-c3ccccc3)o2)C(=O)N1c1ccccc1` (stereo unspecified), 28.3 µM.

As for `CCOC(=O)c1ccc(N=c2ssnc2Cl)cc1`, the IC50 is 10.4 µM. Turning to `COc1ccc(NC(C)(C)c2nnnn2-c2c(C)cccc2C)cc1`, the IC50 was 36.1 µM. As for `Cc1oc2c(Cl)c(Cl)c(O)c(CN(C)C)c2c1C(=O)c1ccc(Cl)cc1`, the figure is 18.6 µM. In the case of `Cc1cc(NC(=O)c2ccccc2Oc2ccccc2)no1`, the IC50 is 60.3 µM. As to `COc1ccc(OCC(=O)O/N=C(\N)Cc2ccc(Cl)cc2)cc1`, the IC50 is 38.4 µM. As for `Cc1nc(Nc2ccccc2)sc1-c1ccccc1`, the figure is 11.9 µM; as for `COc1cccc(N2[C@@H](CC(C)=O)c3ccc(/C=C/C(C)=O)cc3S2(=O)=O)c1`, 18.3 µM. To `O=S(=O)(c1ccc2c(c1)OCCO2)N1CCC(O)(c2ccc(Cl)cc2)CC1` belongs 67.1 µM; to `Cc1nc2scc(C)n2c(=O)c1S(=O)(=O)N1CCN(c2cccc(C(F)(F)F)c2)CC1`, 47.3 µM; to `COc1ccccc1C/C(N)=N/OC(=O)c1ccco1`, 37.3 µM. To `O=C(c1ccc2nc(N3CCCCC3)sc2c1)N1CCN(c2ccccn2)CC1` belongs 46.1 µM. As for `Cc1cccc2nc(COc3ccc(Cl)c4cccnc34)cn12`, the half-inhibitory concentration (IC50) was 44.7 µM. Turning to `Cc1ccc(/C(N)=N/OC(=O)c2ccc3c(c2)OCO3)cc1`, the IC50 is 9.34 µM. As for `Cc1ccc(NC(=O)CN2CCC3(O)CCCCC3C2c2ccc3c(c2)OCO3)c(C)c1` (stereo unspecified), the figure is 60.9 µM.
